Reference: PMC7617459, “Comparative Evaluation and Profiling of Chemical Tools for the Nuclear Hormone Receptor Family 2” (ACS pharmacology & translational science, 2025)
Where two headings read alike, the source gives them in different places.

Assays:
human insulin promoter = settings: insulin promoter assay, cited from earlier work
HNF4α [1] = target: HNF4α; parameters: method as in PMID 22840769; settings: cited from earlier work
[2] = tested on: HNF4α and a set of its target genes; parameters: method as in PMID 22840769; settings: T6PNE cells; cited from earlier work
HNF4α [3] = target: T1, HNF4α (Homo sapiens, UniProt P41235); test: Gal4-hybrid reporter gene assay HNF4α; settings: 3 µM, HEK293T
T1 sequence (P41235 147-377 limits assumed): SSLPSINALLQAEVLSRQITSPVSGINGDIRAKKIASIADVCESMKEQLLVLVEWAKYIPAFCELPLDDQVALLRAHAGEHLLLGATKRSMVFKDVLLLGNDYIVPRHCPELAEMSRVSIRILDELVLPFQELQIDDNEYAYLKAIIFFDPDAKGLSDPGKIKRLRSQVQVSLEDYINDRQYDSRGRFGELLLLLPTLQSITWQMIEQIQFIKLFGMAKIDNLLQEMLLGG

[4] = cited from earlier work
[5] = parameters: method as in PMID 31298602, PMID 30702885; settings: cited from earlier work
TLX [6] = target: T2, TLX (Homo sapiens, UniProt Q9Y466); test: Gal4-hybrid reporter gene assay TLX; assay type: cell-based; settings: selected test concentration (Figure 3)
T2 construct: encoding the hinge region and the LBD of the canonical isoform of the respective human nuclear receptors; expressed in transfected cells; host or cells: HEK293T
T2 sequence (Q9Y466 155-383 limits assumed): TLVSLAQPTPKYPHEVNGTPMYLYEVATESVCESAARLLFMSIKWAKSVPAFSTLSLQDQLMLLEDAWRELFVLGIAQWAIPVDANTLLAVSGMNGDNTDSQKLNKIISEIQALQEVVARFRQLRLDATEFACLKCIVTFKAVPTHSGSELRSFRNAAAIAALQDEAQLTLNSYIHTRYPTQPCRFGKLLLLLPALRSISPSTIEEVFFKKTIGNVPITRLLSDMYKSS

TLX [7] = settings: DSF assays; cited from earlier work
TLX [8] = settings: reporter gene assay; read-out: EC50; cited from earlier work
TLX-regulated genes = settings: human glioblastoma cells (T98G), qRT-PCR; cited from earlier work
TLX expression = settings: cited from earlier work
HEK293T cells = settings: cited from earlier work
[9] = microsomes; cited from earlier work
PNR (NR2E3) = target: T3, PNR (NR2E3) (Homo sapiens, UniProt Q9Y5X4); test: Gal4-hybrid reporter gene assay PNR; assay type: cell-based; settings: selected test concentration (Figure 3)
T3 construct: encoding the hinge region and the LBD of the canonical isoform of the respective human nuclear receptors; expressed in transfected cells; host or cells: HEK293T
T3 sequence (Q9Y5X4 169-410 limits assumed): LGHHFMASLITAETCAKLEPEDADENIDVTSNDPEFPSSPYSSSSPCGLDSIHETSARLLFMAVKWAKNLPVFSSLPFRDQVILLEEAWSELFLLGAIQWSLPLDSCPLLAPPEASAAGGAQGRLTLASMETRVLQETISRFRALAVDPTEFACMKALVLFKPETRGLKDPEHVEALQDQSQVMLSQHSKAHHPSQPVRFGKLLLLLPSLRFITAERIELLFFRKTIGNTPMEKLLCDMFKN
Description: Gal4-hybrid reporter gene assays were performed as described previously using the plasmids pFA-CMV-hTHRα-LBD,[170] pFA-CMV-hRARα-LBD,[171] pFA-CMV-hPPARα-LBD,[172] pFA-CMV-hPPARγ-LBD,[172] pFA-CMV-hPPARδ-LBD,[172] pFA-CMV-revERBα-LBD,[158] pFA-CMV-hRORα-LBD,[173] pFA-CMV-hLXRα-LBD,[118] pFA-CMV-hFXR-LBD,[174] pFA-CMV-hVDR-LBD,[171] pFA-CMV-hCAR-LBD,[171] pFA-CMV-hHNF4α-LBD,[110] pFA-CMV-hRXRα-LBD,[175] pFA-CMV-hTR2-LBD,[102] pFA-CMV-hTR4-LBD,[102] pFA-CMV-hTLX-LBD,[102] pFA-CMV-hNR2E3-LBD,[102] pFA-CMV-hNur77-LBD,[176] pFA-CMV-hSF1-LBD[158] encoding the hinge region and the LBD of the canonical isoform of the respective human nuclear receptors. pFR-Luc (Stratagene, La Jolla, CA, USA) was used as a reporter plasmid, and pRL-SV40 (Promega, Madison, WI, USA) was used for normalization of transfection efficiency and cell growth. HEK293T cells (German Collection of Microorganisms and Cell Culture GmbH, DSMZ) were cultured in Dulbecco’s modified Eagle’s medium (DMEM), high glucose supplemented with 10% fetal calf serum (FCS), sodium pyruvate (1 mM), penicillin (100 U/mL), and streptomycin (100 μg/mL) at 37 °C and 5% CO2 and seeded in 96-well plates (3 × 10^4 cells/well). The medium was changed to Opti-MEM without supplements, and the cells were transiently transfected with one pFA-CMV-hNR-LBD clone, pFR-Luc, and pRL-SV40 using Lipofectamine LTX reagent (Invitrogen, Thermo Fisher Scientific) according to the manufacturer’s instructions. Five hours after transfection, cells were incubated with the test compounds in Opti-MEM supplemented with penicillin (100 U/mL), streptomycin (100 μg/mL), and 0.1% DMSO. Each sample was set up in duplicates and tested in at least three independent experiments. After 16 h incubation, luciferase activity was measured using the Dual-Glo Luciferase Assay System (Promega) according to the manufacturer’s protocol on a Tecan Spark luminometer (Tecan Deutschland GmbH, Crailsheim, Germany). Firefly luminescence was divided by Renilla luminescence and multiplied by 1000 resulting in relative light units (RLUs) to normalize for transfection efficiency and cell growth. Fold activation was obtained by dividing the mean RLU of the test compound by the mean^a RLU of the untreated control, and relative activation was calculated by dividing the fold activation of a test sample by the fold activation of the respective reference agonist. Antagonistic effects were evaluated by coincubation of the test compound with the respective reference ligand.

nuclear receptors = test: Selectivity profiling in Gal4-hybrid reporter gene assay panel; assay type: cell-based, human; settings: at active concentration
Description: Compounds were tested at concentrations around EC90 according to the literature or at the highest nontoxic concentration (from the multiplex toxicity assay). […] (b) Selectivity profiling of NR2 modulators in a representative panel of nuclear receptors outside the NR2 family. […] Effects <5% of the respective reference ligands were considered as not relevant and omitted. Only effects are shown that are statistically significant against VP16 ctrl (Figure S3); n = 3.

COS-7 cells = test: Multiplex toxicity assay; assay type: cell-based; settings: 24 h, at active concentration
Description: COS-7 cells (DSMZ #ACC 60) were cultured at 37°C and 5% CO2 in DMEM high glucose medium supplemented with sodium pyruvate (1 mM), penicillin (100 U/mL), streptomycin (100 µg/mL), and 10% fetal calf serum (FCS). After aspirating the wells, the cells were seeded at 1x10^5 cells per well in complete culture medium. […] Each sample was prepared in at least 4 biologically independent replicates. After incubation for 24 h, the wells were aspirated and incubated for 30 min with stimulation medium containing 1 µM NucView® 405 fluorogenic caspase-3 substrate (#10405, Biotium, Fremont, USA) and Live-or-Dye Nuc-Fix Red (0.05x, Biotium, Inc., Fremont, CA, 1691 USA) to detect apoptosis and necrosis, respectively. After incubation, a total of 6 fluorescence images per well at 10x magnification were taken to detect NucView®-positive (Ex: 381–400 nm, Em: 414–450 nm) and Live-or-Dye-positive cells (Ex: 543−566 nm, Em: 580−611 nm) using on a Tecan Spark Cyto (Tecan Group AG). Reference readings for background correction and detection of auto-fluorescence were taken at 414–450 nm prior to staining. Thereafter, wells were aspirated, the cells were incubated for 3 h with 90 µL culture medium (0.2% FCS) and 10 µL Cell Counting Kit-8 solution (CCK-8, MedChem Express #HY-K0301), and absorbance was measured at 1, 2, and 3h of incubation at 450 nm on a Tecan Spark Cyto to assess metabolic activity of the cells. Before drug administration, after the first medium exchange, 24 h after drug administration, and after fluorescence imaging cell confluence was assessed using the Tecan Spark Cyto, to account for changes in cell confluence due to drug administration and cell handling. The number of apoptotic cells, metabolic activity, and changes in cell confluence in response to drug treatment were all normalized to the vehicle control of each biological replicate individually.

ATF6 = ATF6 activity assay; assay type: cell-based; settings: tunicamycin treated Hela ATF6 reporter cells
From the text: Next, we evaluated the potential impact of the NR2 modulator set on endoplasmic reticulum (ER) stress in an ATF6 activity assay (Fig. 4b). The activating transcription factor 6 (ATF6) participates in the unfolded protein response and is activated under ER stress.[164] Tunicamycin-induced ATF6 activity was not affected by RXR and TLX modulators but was reduced by the inverse PNR agonists 22 and 23.
Hela cells containing a Renilla luciferase reporter gene for ATF6 activity (ATF6 Leeporter™ Luciferase Reporter-HeLa Cell Line, Abeomics Inc.; #14-138ACL) were cultured in DMEM supplemented with 10% heat-inactivated FCS, penicillin (100 U/mL), streptomycin (100 μg/mL) and puromycin (3 µg/mL) at 37°C and 5% (v/v) CO2 and seeded in 96-well plates (1 × 10^5 per well). After 24 h, the cells were incubated with the test compounds solubilized with 0.1% DMSO in the same medium without puromycin. After 4 h of incubation, tunicamycin (100 ng/mL) was added. After another 18 h of incubation, cells were assayed for renilla luminescence using DualGlo reagent (Promega) on a Tecan SPARK Cyto (Tecan). Test samples were normalized to the 0.1% DMSO control.

PNR [10] = settings: reporter gene assay; cited from earlier work
Gal4-VP16 = tested on: Gal4-VP16; parameters: method as in PMID 16834531; settings: cited from earlier work
rhodopsin expression = tested on: rhodopsin expression; parameters: method as in PMID 29148976, PMID 27893103; settings: cited from earlier work; for rhodopsin expression: murine retinal cells, immunofluorescence and qRT-PCR
PNR [11] = target: PNR; parameters: method as in PMID 29148976; settings: ITC, cited from earlier work
NR2E3 = tested on: NR2E3; parameters: method as in PMID 16879962; settings: reporter gene assay, cited from earlier work
COUP-TF2 = tested on: COUP-TF2; parameters: method as in PMID 32494682; settings: reporter gene assay; cited from earlier work
[12] = tested on: HNF4α, RXRα, PPARα, LXRα, GR, PR, ER, RAR, RORγ, AR, and COUP-TF1; parameters: method as in PMID 32494682; settings: cited from earlier work
[13] = tested on: COUP-TF2 target genes FOXM1 and CDK1; parameters: method as in PMID 32494682; settings: prostate cancer cells; cited from earlier work

Cc1nc2ccccc2n1S(=O)(=O)c1cc([N+](=O)[O-])ccc1Cl [compound 1]
IC50 (human insulin promoter): 900 nM
IC50 (human insulin promoter; listed as BIM5078 (1)): 930 nM
Kd (HNF4α [1]; Try/Trp fluorescence quenching assays): 12 nM
EC50 (HNF4α [1]; direct binding, read-out: EC50 of quenching of intrinsic Tyr/Trp fluorescence of HNF4α): 11.9 nM
expression of HNF4α and a set of its target genes [2]: suppress the expression
effects on HNF4 activity (HNF4α [3]): no effects

C=C(c1ccc(C(=O)O)cc1)c1cc2c(cc1C)C(C)(C)CCC2(C)C [compound 6, bexarotene]
adverse effects associated with clinical use [4]: elevated triglyceride and cholesterol levels, leukopenia, hypothyroidism, and an increased risk of acute pancreatitis
lipophilicity [5]: highly lipophilic

Cc1cc(C(=O)N2CCN(C(c3ccccc3)c3ccccc3)CC2)nn1C [compound 15]
TLX modulation (TLX [6]): not observed
Kd (TLX [7]): 650 nM
EC50 (TLX [8]): 1000 nM
SIRT, SLC1a1 and p21 induction (TLX-regulated genes): trend toward SIRT and SLC1a1 but not p21 induction
TLX expression (TLX expression): not affected
toxicity in WST-1 assay (HEK293T cells): Low toxicity
t1/2 against microsomal degradation [9]: < 15 min

Cc1cc(C)cc(NC(=O)CCc2nc3sc4c(c3c(=O)[nH]2)CCCC4)c1 [compound 22]
PNR modulation (PNR (NR2E3)): confirmed albeit with rather low efficacy
selectivity over other nuclear receptors (nuclear receptors): Favorable selectivity profiles
cytotoxicity (COS-7 cells): lack of cytotoxicity
tunicamycin-induced ATF6 activity (ATF6): reduced
IC50 (PNR [10]): 250 nM
activity in control experiments using Gal4-VP16 (Gal4-VP16): inactive
rhodopsin expression (rhodopsin expression): dose-dependent reduction

COc1cc2nc(CN3CC=C(c4ccccc4)CC3)nc(O)c2cc1OC [compound 23]
PNR modulation (PNR (NR2E3)): confirmed albeit with rather low efficacy
selectivity over other nuclear receptors (nuclear receptors): Favorable selectivity profiles
cytotoxicity (COS-7 cells): lack of cytotoxicity
tunicamycin-induced ATF6 activity (ATF6): reduced
IC50 (PNR [10]): 70 nM
activity in control experiments using Gal4-VP16 (Gal4-VP16): inactive
Rho mRNA expression (rhodopsin expression): decreased
rhodopsin expression (rhodopsin expression): dose-dependent reduction
Kd (PNR [11]): 67 µM
Kd (PNR [11]; listed as Photoregulin3 (23)): 64 µM

O=C(Nc1ccc(-c2nc3ccc(NC(=O)C4CC4)cc3[nH]2)cc1)c1ccccc1Cl [compound 24]
EC50 (NR2E3; read-out: EC50 (first value of cell)): 141 nM
EC50 (NR2E3; read-out: EC50 (second value of cell)): 35 nM

COc1ccc(CCNc2ncnc3sccc23)cc1OC [compound 28]
IC50 (COUP-TF2): 2800 nM
interaction with related NRs in pulldown assay [12]: no relevant interaction
expression of COUP-TF2 target genes FOXM1 and CDK1 [13]: altered expression
